Reference: ChEMBL document CHEMBL3739302, “Synthesis of 5-trifluoromethyl-2-sulfonylpyridine PPARβ/δ antagonists: Effects on the affinity and selectivity towards PPARβ/δ” (Bioorg Med Chem, 2016)
Calls of active or inactive are those of the source. No cut-off for these calls is given here.

Tests used:
[1] = target: T1, Peroxisome proliferator-activated receptor alpha (Homo sapiens) (UniProt Q07869); experiment: Binding affinity to GST-PPAR-alpha LBP (unknown origin) at 1 uM by TR-FRET assay
T1 sequence (whole entry): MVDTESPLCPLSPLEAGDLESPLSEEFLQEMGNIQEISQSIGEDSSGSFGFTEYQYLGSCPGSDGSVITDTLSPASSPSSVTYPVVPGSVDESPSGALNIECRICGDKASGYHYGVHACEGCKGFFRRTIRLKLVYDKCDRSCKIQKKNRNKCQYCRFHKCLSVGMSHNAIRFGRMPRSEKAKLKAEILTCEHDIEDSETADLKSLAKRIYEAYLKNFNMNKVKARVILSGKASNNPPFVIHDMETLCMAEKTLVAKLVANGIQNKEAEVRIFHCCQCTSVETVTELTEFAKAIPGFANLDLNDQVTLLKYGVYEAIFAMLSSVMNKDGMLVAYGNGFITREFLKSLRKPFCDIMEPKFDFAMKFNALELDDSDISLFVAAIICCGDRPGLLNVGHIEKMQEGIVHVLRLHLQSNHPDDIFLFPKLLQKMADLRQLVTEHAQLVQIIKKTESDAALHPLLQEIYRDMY

[2] = target: T2, Peroxisome proliferator-activated receptor gamma (Homo sapiens) (UniProt P37231); experiment: Binding affinity to GST-PPAR-gamma LBP (unknown origin) at 1 uM after 1 hr by TR-FRET assay
T2 sequence (whole entry): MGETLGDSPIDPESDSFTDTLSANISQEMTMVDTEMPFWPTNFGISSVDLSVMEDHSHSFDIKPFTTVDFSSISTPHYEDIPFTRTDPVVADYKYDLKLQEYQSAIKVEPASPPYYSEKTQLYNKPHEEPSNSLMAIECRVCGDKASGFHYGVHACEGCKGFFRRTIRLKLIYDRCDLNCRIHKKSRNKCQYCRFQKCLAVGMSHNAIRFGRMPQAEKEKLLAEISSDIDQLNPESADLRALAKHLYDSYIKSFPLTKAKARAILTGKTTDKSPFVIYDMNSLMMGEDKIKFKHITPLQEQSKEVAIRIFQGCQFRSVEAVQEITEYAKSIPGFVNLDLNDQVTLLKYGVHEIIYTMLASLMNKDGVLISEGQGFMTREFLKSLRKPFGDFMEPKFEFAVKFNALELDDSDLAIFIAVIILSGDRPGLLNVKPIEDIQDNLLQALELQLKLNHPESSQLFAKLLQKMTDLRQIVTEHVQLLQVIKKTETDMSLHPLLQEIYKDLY

[3] = target: T2, Peroxisome proliferator-activated receptor gamma (Homo sapiens); experiment: Binding affinity to GST-PPAR-gamma LBP (unknown origin) at 1 uM after 24 hrs by TR-FRET assay
[4] = target: T3, Peroxisome proliferator-activated receptor delta (Homo sapiens, UniProt Q03181); experiment: Binding affinity to GST-PPAR-beta/delta LBP (unknown origin) after 3 hrs by TR-FRET assay
T3 sequence (Q03181 whole entry): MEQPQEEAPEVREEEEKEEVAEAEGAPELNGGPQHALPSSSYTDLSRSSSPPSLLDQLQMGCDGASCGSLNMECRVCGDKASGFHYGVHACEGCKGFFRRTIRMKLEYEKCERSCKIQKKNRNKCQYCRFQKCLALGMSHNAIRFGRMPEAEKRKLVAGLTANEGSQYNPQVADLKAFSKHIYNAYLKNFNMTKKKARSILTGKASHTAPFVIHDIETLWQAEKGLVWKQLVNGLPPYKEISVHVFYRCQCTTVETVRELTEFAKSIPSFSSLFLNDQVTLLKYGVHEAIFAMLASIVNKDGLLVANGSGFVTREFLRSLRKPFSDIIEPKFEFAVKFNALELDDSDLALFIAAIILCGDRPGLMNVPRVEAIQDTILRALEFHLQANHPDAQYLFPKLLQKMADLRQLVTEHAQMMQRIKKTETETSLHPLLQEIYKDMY

[5] = target: T1, Peroxisome proliferator-activated receptor alpha (Homo sapiens); experiment: Binding affinity to GST-PPAR-alpha LBP (unknown origin) at 1 and 10 uM after 1 hr by TR-FRET assay
[6] = target: T3, Peroxisome proliferator-activated receptor delta; experiment: Binding affinity to GST-PPAR-beta/delta LBP (unknown origin) after 1 hr by TR-FRET assay
[7] = target: T3, Peroxisome proliferator-activated receptor delta; experiment: Binding affinity to GST-PPAR-beta/delta LBP (unknown origin) after 20 mins by TR-FRET assay
[8] = target: T4, Peroxisome proliferator-activated receptor delta (Homo sapiens) (UniProt Q03181); experiment: Binding affinity to GST-PPAR-beta/delta LBP (unknown origin) at 1 uM after 1 hr by TR-FRET assay
T4 sequence (whole entry): T3 sequence (Q03181 whole entry)

[9] = target: T2, Peroxisome proliferator-activated receptor gamma (Homo sapiens); experiment: Binding affinity to GST-PPAR-gamma LBP (unknown origin) at 10 uM after 24 hrs by TR-FRET assay
[10] = target: T3, Peroxisome proliferator-activated receptor delta; experiment: Binding affinity to GST-PPAR-beta/delta LBP (unknown origin) after 40 mins by TR-FRET assay
[11] = target: T3, Peroxisome proliferator-activated receptor delta; experiment: Binding affinity to GST-PPAR-beta/delta LBP (unknown origin) after 2 hrs by TR-FRET assay
[12] = target: T2, Peroxisome proliferator-activated receptor gamma (Homo sapiens); experiment: Binding affinity to GST-PPAR-gamma LBP (unknown origin) at 10 uM after 1 hr by TR-FRET assay
[13] = target: T1, Peroxisome proliferator-activated receptor alpha (Homo sapiens); experiment: Binding affinity to GST-PPAR-alpha LBP (unknown origin) at 1 and 10 uM after 24 hrs by TR-FRET assay
[14] = target: T1, Peroxisome proliferator-activated receptor alpha (Homo sapiens); experiment: Binding affinity to GST-PPAR-alpha LBP (unknown origin) at 1 uM after 2 hrs by TR-FRET assay
[15] = target: T3, Peroxisome proliferator-activated receptor delta; experiment: Binding affinity to GST-PPAR-beta/delta LBP (unknown origin) after 24 hrs by TR-FRET assay

## CN(CCS(=O)(=O)c1ccc(C(F)(F)F)cn1)C(=O)c1ccc2ccccc2c1
[1]
  Activity: Active
[2]
  Activity: Active

## O=C(NCCS(=O)(=O)c1ccc(C(F)(F)F)cn1)c1ccc2ccccc2c1
[3]
  Activity: Active
[4]
  IC50: 320 nM
[5]
  Activity: inactive
[6]
  IC50: 751 nM
[1]
  Activity: Active
[7]
  IC50: 1930 nM
[8]
  Activity: Active
[9]
  Activity: Active
[10]
  IC50: 930 nM
[2]
  Activity: Active
[11]
  IC50: 448 nM
[12]
  Activity: Active
[13]
  Activity: inactive

## O=C(NCCS(=O)(=O)c1ccc(C(F)(F)F)cn1)c1cccc2ccncc12
[1]
  Activity: Active

## O=C(NCCS(=O)(=O)c1ccc(C(F)(F)F)cn1)c1ccc2ncccc2c1
[1]
  Activity: Active

## O=C(NCCS(=O)(=O)c1ccc(C(F)(F)F)cn1)c1ccnc2ccccc12
[1]
  Activity: Active
[14]
  Activity: Active

## O=C(NCCS(=O)(=O)c1ccc(C(F)(F)F)cn1)c1ccc2cnccc2c1
[1]
  Activity: Active

## O=C(NCCS(=O)(=O)c1ccc(C(F)(F)F)cn1)c1cc2ccccc2cn1
[1]
  Activity: Active

## O=C(NCCS(=O)(=O)c1ccc(C(F)(F)F)cn1)c1ccccc1
[1]
  Activity: Active

## Cc1nc(-c2ccc(C(F)(F)F)cc2)sc1C(=O)NCCS(=O)(=O)c1ccc(C(F)(F)F)cn1
[4]
  IC50: 284 nM
[5]
  Activity: inactive
[6]
  IC50: 423 nM
[7]
  IC50: 949 nM
[10]
  IC50: 581 nM
[2]
  Activity: Active
[11]
  IC50: 301 nM
[13]
  Activity: inactive

## O=C(NCCS(=O)(=O)c1ccc(C(F)(F)F)cn1)c1ccc2ccccc2n1
[1]
  Activity: Active

## O=C(NCCS(=O)(=O)c1ccc(C(F)(F)F)cn1)c1cccc2c1CCCC2
[1]
  Activity: Active
[2]
  Activity: Active

## O=C(NCCS(=O)(=O)c1ccc(C(F)(F)F)cn1)c1cnc2ccccc2c1
[3]
  Activity: Active
[15]
  IC50: 241 nM
[4]
  IC50: 1430 nM
[5]
  Activity: inactive
[6]
  IC50: 6820 nM
[9]
  Activity: Active
[10]
  IC50: 17600 nM
[2]
  Activity: Active
[11]
  IC50: 2320 nM
[12]
  Activity: Active
[13]
  Activity: inactive

## O=C(CCCS(=O)(=O)c1ccc(C(F)(F)F)cn1)c1ccc2ccccc2c1
[1]
  Activity: Active

## COc1ccc(C(=O)NCCS(=O)(=O)c2ccc(C(F)(F)F)cn2)cc1
[1]
  Activity: Active
[8]
  Activity: Active

## O=C(NCCS(=O)(=O)c1ccc(C(F)(F)F)cn1)c1ccc(Cl)cc1
[15]
  IC50: 1.21 nM
[4]
  IC50: 233 nM
[5]
  Activity: inactive
[6]
  IC50: 648 nM
[7]
  IC50: 1330 nM
[9]
  Activity: Active
[10]
  IC50: 825 nM
[2]
  Activity: Active
[11]
  IC50: 284 nM
[12]
  Activity: Active
[13]
  Activity: inactive

## O=C(NCCS(=O)(=O)c1ccc(C(F)(F)F)cn1)c1ccc2ccncc2c1
[1]
  Activity: Active
[2]
  Activity: Active

## O=C(CCCS(=O)(=O)c1ccc(C(F)(F)F)cn1)c1cccc2ccccc12
[1]
  Activity: Active

## O=C(NCCS(=O)(=O)c1ccc(C(F)(F)F)cn1)c1nccc2ccccc12
[1]
  Activity: Active
[2]
  Activity: Active

## CC(C)C(=O)NCCS(=O)(=O)c1ccc(C(F)(F)F)cn1
[1]
  Activity: Active

## O=C(NCCS(=O)(=O)c1ccc(C(F)(F)F)cn1)c1cccc2cccnc12
[1]
  Activity: Active

## O=C(NCCS(=O)(=O)c1ccc(C(F)(F)F)cn1)c1ccc2cccnc2c1
[1]
  Activity: Active

## O=C(NCCS(=O)(=O)c1ccc(C(F)(F)F)cn1)C12CC3CC(CC(C3)C1)C2
[1]
  Activity: Active

## O=C(COc1ccccc1)NCCS(=O)(=O)c1ccc(C(F)(F)F)cn1
[1]
  Activity: Active

## O=C(NCCS(=O)(=O)c1ccc(C(F)(F)F)cn1)c1cccc2ccccc12
[1]
  Activity: Active
[8]
  Activity: Active
[2]
  Activity: Active

## O=C(NCCS(=O)(=O)c1ccc(C(F)(F)F)cn1)c1ccc2c(c1)CCCC2
[3]
  Activity: Active
[15]
  IC50: 271 nM
[4]
  IC50: 598 nM
[5]
  Activity: inactive
[6]
  IC50: 1530 nM
[7]
  IC50: 4220 nM
[9]
  Activity: Active
[10]
  IC50: 1960 nM
[2]
  Activity: Active
[11]
  IC50: 907 nM
[12]
  Activity: Active
[13]
  Activity: inactive

## CCN(CCS(=O)(=O)c1ccc(C(F)(F)F)cn1)C(=O)c1ccc2ccccc2c1
[1]
  Activity: Active

## O=C(NCCS(=O)(=O)c1ccc(C(F)(F)F)cn1)c1cccc2ncccc12
[1]
  Activity: Active

## O=C(NCCS(=O)(=O)c1ccc(C(F)(F)F)cn1)c1cccnc1
[1]
  Activity: Active

## O=C(NCCS(=O)(=O)c1ccc(C(F)(F)F)cn1)c1cncc2ccccc12
[1]
  Activity: Active

## O=C(NCCS(=O)(=O)c1ccc(C(F)(F)F)cn1)c1ccc(F)cc1
[1]
  Activity: Active
[8]
  Activity: Active
[2]
  Activity: Active

## CC(C)(C)C(=O)NCCS(=O)(=O)c1ccc(C(F)(F)F)cn1
[1]
  Activity: Active

## CN1CCN(c2ccc(/C=C(\C#N)c3ccccc3Br)cc2)CC1
[15]
  IC50: 48 nM
[4]
  IC50: 40.1 nM
[6]
  IC50: 32.7 nM
[7]
  IC50: 29 nM
[10]
  IC50: 30.4 nM
[11]
  IC50: 37 nM

## O=C(c1ccc2ccccc2c1)N(CCS(=O)(=O)c1ccc(C(F)(F)F)cn1)Cc1ccccc1
[1]
  Activity: Active

## O=C(NCCS(=O)(=O)c1ccc(C(F)(F)F)cn1)c1cccc2cnccc12
[1]
  Activity: Active
